{"source": "PubChem BioAssay AID1259411", "about": "(Chemical Carcinogenesis Research Information System (CCRIS), 2018)", "system": "rodent carcinogenicity bioassays, tumor incidence", "test": "CCRIS carcinogenicity studies", "conditions": "Species: MOUSE", "in_short": "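NCI-built, expert-reviewed records of carcinogenicity and related test outcomes (mutagenicity, tumor promotion/inhibition) compiled from published and report sources, historical span 1985-2011, not updated.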", "note": "Calls of active or inactive are those of the source. How the calls were made is not given here.", "data": [{"smiles": "c1ccc2c(c1)cc1ccc3cccc4ccc2c1c34", "values": [{"measurement": "carcinogen call", "setting": "Strain/Sex: C3H/MALE, Route: DERMAL, Dose: 0.15-470 UG, 3/WK FOR LIFE, Tumor Site: Type of Lesion: INTEGUMENTARY SYSTEM (SKIN)", "value": "active; positive"}, {"measurement": "carcinogen call", "setting": "Strain/Sex: C3H/MALE, Route: SUBCUTANEOUS, Dose: 0.00195-8.0 MG, SINGLE DOSE, Tumor Site: Type of Lesion: INJECTION SITE: SARCOMA", "value": "active; positive"}, {"measurement": "carcinogen call", "setting": "Strain/Sex: C3H, Route: DERMAL, Dose: 0.00002-0.02%, 3/WK FOR UP TO 80 WK, Tumor Site: Type of Lesion: INTEGUMENTARY SYSTEM (SKIN)", "value": "active; positive"}, {"measurement": "carcinogen call", "setting": "Strain/Sex: C57BL/FEMALE, Route: INTRATRACHEAL, Dose: 0, 1 MG ON CHARCOAL POWDER INSTILLED 8 TIMES (STUDY DURATION: 13 WK), Tumor Site: Type of Lesion: LUNG: SQUAMOUS CELL CARCINOMA OR ADENOCARCINOMA", "value": "active; positive"}, {"measurement": "carcinogen call", "setting": "Strain/Sex: C57BL/FEMALE, Route: SUBCUTANEOUS, Dose: 0, 0.5, 1 MG IN 1% AQUEOUS GELATIN INJECTED IN THE SCAPULAR REGION OF NEWBORN MICE ONCE (STUDY DURATION: 9 WK), Dose: 0, 0.5, 1 MG IN 1% AQUEOUS GELATIN INJECTED IN THE SCAPULAR REGION OF NEWBORN MICE ONCE (STUDY DURATION: 9 WK)", "value": "inactive; negative"}, {"measurement": "carcinogen call", "setting": "Strain/Sex: C57BL/MALE, Route: SUBCUTANEOUS, Dose: 0, 0.5, 1 MG IN 1% AQUEOUS GELATIN INJECTED IN THE SCAPULAR REGION OF NEWBORN MICE ONCE (STUDY DURATION: 9 WK), Dose: 0, 0.5, 1 MG IN 1% AQUEOUS GELATIN INJECTED IN THE SCAPULAR REGION OF NEWBORN MICE ONCE (STUDY DURATION: 9 WK)", "value": "inactive; negative"}, {"measurement": "carcinogen call", "setting": "Strain/Sex: C57BL, Route: DERMAL, Dose: 0.0001-0.5%, 3/WK, Tumor Site: Type of Lesion: INTEGUMENTARY SYSTEM (SKIN)", "value": "active; positive"}, {"measurement": "carcinogen call", "setting": "Strain/Sex: C57BL, Route: SUBCUTANEOUS, Dose: 0.00004, 0.0004, 0.004, 0.04 MG, SINGLE DOSE, Tumor Site: Type of Lesion: INJECTION SITE: SARCOMA", "value": "active; positive"}, {"measurement": "carcinogen call", "setting": "Strain/Sex: C57BR/CDJ/FEMALE, Route: SUBCUTANEOUS, Dose: 0, 0.5, 1 MG IN 1% AQUEOUS GELATIN INJECTED IN THE SCAPULAR REGION OF NEWBORN MICE ONCE (STUDY DURATION: 9 WK), Dose: 0, 0.5, 1 MG IN 1% AQUEOUS GELATIN INJECTED IN THE SCAPULAR REGION OF NEWBORN MICE ONCE (STUDY DURATION: 9 WK)", "value": "inactive; negative"}, {"measurement": "carcinogen call", "setting": "Strain/Sex: C57BR/CDJ/MALE, Route: SUBCUTANEOUS, Dose: 0, 0.5, 1 MG IN 1% AQUEOUS GELATIN INJECTED IN THE SCAPULAR REGION OF NEWBORN MICE ONCE (STUDY DURATION: 9 WK), Dose: 0, 0.5, 1 MG IN 1% AQUEOUS GELATIN INJECTED IN THE SCAPULAR REGION OF NEWBORN MICE ONCE (STUDY DURATION: 9 WK)", "value": "inactive; negative"}, {"measurement": "carcinogen call", "setting": "Strain/Sex: CAF1, Route: DERMAL, Dose: 0.0005, 0.001, 0.5%, 3/WK, Tumor Site: Type of Lesion: INTEGUMENTARY SYSTEM (SKIN): PAPILLOMA", "value": "active; positive"}, {"measurement": "carcinogen call", "setting": "Strain/Sex: CFW/MALE, FEMALE, Route: ORAL, Dose: 30-250 PPM IN DIET FOR 70-197 D, Tumor Site: Type of Lesion: STOMACH", "value": "active; positive"}, {"measurement": "carcinogen call", "setting": "Strain/Sex: CFW/MALE, FEMALE, Route: ORAL, Dose: 250 PPM IN DIET FOR 1-30 D, OBSERVED UNTIL 103-107 D, Tumor Site: Type of Lesion: FORESTOMACH", "value": "active; positive"}, {"measurement": "carcinogen call", "setting": "Strain/Sex: CFW, Route: SUBCUTANEOUS, Dose: 0.001-2 MG, SINGLE DOSE, Tumor Site: Type of Lesion: INJECTION SITE: FIBROSARCOMA", "value": "active; positive"}, {"measurement": "carcinogen call", "setting": "Strain/Sex: DBA/2/FEMALE, Route: INTRATRACHEAL, Dose: 0, 1 MG ON CHARCOAL POWDER INSTILLED 8 TIMES (STUDY DURATION: 13 WK)", "value": "inactive; negative"}, {"measurement": "carcinogen call", "setting": "Strain/Sex: EU-PIM-1/MALE, Route: GAVAGE, Dose: 0, 4.3, 13, 39 MG/KG BW IN 0.1 ML SOY OIL 3/WK FOR 13 WK (STUDY DURATION: 291 D), Dose: 0, 4.3, 13, 39 MG/KG BW IN 0.1 ML SOY OIL 3/WK FOR 13 WK (STUDY DURATION: 291 D), Tumor Site: Type of Lesion: LYMPHATIC SYSTEM: LYMPHOMA, FORESTOMACH: TUMOR", "value": "active; positive"}, {"measurement": "carcinogen call", "setting": "Strain/Sex: ICR/FEMALE, Route: INTRAPERITONEAL, Dose: 0, 59.5 UG TOTAL DOSE (8.5 UG/5 µL, 17 UG/10 µL, 34 UG/20 µL DMSO ON DAYS 1, 8 AND 15) ADMINISTERED TO NEWBORN ANIMALS (, Tumor Site: Type of Lesion: LUNG: ADENOMA", "value": "active; positive"}, {"measurement": "carcinogen call", "setting": "Strain/Sex: ICR/MALE, Route: INTRAPERITONEAL, Dose: 0, 59.5 UG TOTAL DOSE (8.5 UG/5 µL, 17 UG/10 µL, 34 UG/20 µL DMSO ON DAYS 1, 8 AND 15) ADMINISTERED TO NEWBORN ANIMALS (, Tumor Site: Type of Lesion: LUNG: ADENOMA", "value": "active; positive"}, {"measurement": "carcinogen call", "setting": "Strain/Sex: N:GP(S)/FEMALE, Route: INTRATRACHEAL, Dose: 0, 1 MG ON CHARCOAL POWDER INSTILLED 8 TIMES (STUDY DURATION: 13 WK)", "value": "inactive; negative"}, {"measurement": "carcinogen call", "setting": "Strain/Sex: N:GP(S)/FEMALE, Route: SUBCUTANEOUS, Dose: 0, 40, 62.5, 125, 250, 500, 1000 UG FOR 9 WK (STUDY DURATION: 9 WK), Dose: 0, 40, 62.5, 125, 250, 500, 1000 UG FOR 9 WK (STUDY DURATION: 9 WK), Tumor Site: Type of Lesion: LUNG: ADENOMA", "value": "active; positive"}, {"measurement": "carcinogen call", "setting": "Strain/Sex: N:GP(S)/MALE, Route: SUBCUTANEOUS, Dose: 0, 40, 62.5, 125, 250, 500, 1000 UG FOR 9 WK (STUDY DURATION: 9 WK), Dose: 0, 40, 62.5, 125, 250, 500, 1000 UG FOR 9 WK (STUDY DURATION: 9 WK), Tumor Site: Type of Lesion: LUNG: ADENOMA", "value": "active; positive"}]}]}
